Data reported in ChEMBL document CHEMBL4507320, “Data for DCP probe NVS-MALT1” (2021).

What was measured:
[1] = target: Serine/threonine-protein kinase 24 (Homo sapiens) (UniProt Q9Y6E0); settings: Compound concentration 1000.0 nM
[2] = system: Epidermal growth factor receptor (Homo sapiens), P00533 [T790M]; settings: Compound concentration 1000.0 nM
[3] = system: Proto-oncogene tyrosine-protein kinase receptor Ret (Homo sapiens), P07949 [M918T]; settings: Compound concentration 1000.0 nM
[4] = system: Proto-oncogene tyrosine-protein kinase receptor Ret (Homo sapiens), P07949 [V804M]; settings: Compound concentration 1000.0 nM
[5] = target: Serine/threonine-protein kinase TAO3 (Homo sapiens) (UniProt Q9H2K8); settings: Compound concentration 1000.0 nM
[6] = target: Serine/threonine-protein kinase tousled-like 1 (Homo sapiens) (UniProt Q9UKI8); settings: Compound concentration 1000.0 nM
[7] = target: Protein kinase C delta type (Homo sapiens) (UniProt Q05655); settings: Compound concentration 1000.0 nM
[8] = target: Calcium/calmodulin-dependent protein kinase type II subunit gamma (Homo sapiens) (UniProt Q13555); settings: Compound concentration 1000.0 nM
Calcium/calmodulin-dependent protein kinase type II subunit gamma (Homo sapiens), sequence (Q13555 whole entry): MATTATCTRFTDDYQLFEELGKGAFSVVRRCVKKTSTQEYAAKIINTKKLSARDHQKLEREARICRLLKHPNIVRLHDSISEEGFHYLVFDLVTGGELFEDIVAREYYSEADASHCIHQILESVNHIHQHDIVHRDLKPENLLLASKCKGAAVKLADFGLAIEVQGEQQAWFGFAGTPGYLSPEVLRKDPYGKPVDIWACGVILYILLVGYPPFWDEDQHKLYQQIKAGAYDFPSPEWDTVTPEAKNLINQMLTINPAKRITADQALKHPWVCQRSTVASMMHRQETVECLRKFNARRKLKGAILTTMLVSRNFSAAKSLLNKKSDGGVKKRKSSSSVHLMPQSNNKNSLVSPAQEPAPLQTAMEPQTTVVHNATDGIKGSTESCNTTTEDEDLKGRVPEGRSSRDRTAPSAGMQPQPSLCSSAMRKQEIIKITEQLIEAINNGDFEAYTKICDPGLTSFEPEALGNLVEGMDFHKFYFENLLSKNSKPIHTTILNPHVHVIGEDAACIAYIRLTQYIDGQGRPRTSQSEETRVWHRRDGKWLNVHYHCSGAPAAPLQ

[9] = target: Serine/threonine-protein kinase B-raf (Homo sapiens) (UniProt P15056); settings: Compound concentration 1000.0 nM
[10] = target: Mitogen-activated protein kinase kinase kinase 11 (Homo sapiens) (UniProt Q16584); settings: Compound concentration 1000.0 nM
Mitogen-activated protein kinase kinase kinase 11 (Homo sapiens), sequence (Q16584 whole entry, looked up): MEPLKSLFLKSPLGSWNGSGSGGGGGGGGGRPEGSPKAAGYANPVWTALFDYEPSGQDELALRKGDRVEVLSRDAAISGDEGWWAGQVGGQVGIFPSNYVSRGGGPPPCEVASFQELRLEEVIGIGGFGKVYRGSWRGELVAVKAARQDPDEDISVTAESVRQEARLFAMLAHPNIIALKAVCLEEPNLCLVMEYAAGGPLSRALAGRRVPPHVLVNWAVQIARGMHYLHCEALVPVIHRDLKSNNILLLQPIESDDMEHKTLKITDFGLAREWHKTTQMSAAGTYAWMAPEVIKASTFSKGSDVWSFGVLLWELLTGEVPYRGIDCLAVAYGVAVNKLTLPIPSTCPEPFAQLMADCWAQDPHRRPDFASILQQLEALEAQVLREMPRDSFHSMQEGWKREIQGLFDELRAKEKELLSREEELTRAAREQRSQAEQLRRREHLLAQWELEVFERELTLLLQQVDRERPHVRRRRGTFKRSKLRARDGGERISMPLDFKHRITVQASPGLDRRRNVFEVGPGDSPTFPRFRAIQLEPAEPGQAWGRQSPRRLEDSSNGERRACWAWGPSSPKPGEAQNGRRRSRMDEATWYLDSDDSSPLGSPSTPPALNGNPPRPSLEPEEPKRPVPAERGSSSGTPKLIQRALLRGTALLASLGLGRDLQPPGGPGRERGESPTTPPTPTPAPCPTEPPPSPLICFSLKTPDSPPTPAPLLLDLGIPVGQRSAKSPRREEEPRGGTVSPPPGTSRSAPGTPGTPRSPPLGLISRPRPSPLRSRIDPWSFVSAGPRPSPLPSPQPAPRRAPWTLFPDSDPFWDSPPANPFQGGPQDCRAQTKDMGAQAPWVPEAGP

[11] = target: Phosphatidylinositol 4-kinase beta (Homo sapiens) (UniProt Q9UBF8); settings: Compound concentration 1000.0 nM
[12] = target: Calcium/calmodulin-dependent protein kinase type 1D (Homo sapiens) (UniProt Q8IU85); settings: Compound concentration 1000.0 nM
[13] = system: Tyrosine-protein kinase ABL1 (Homo sapiens), P00519 [H396P]; settings: Compound concentration 1000.0 nM
[14] = target: Muscarinic acetylcholine receptor M3 (Homo sapiens) (UniProt P20309); settings: Compound concentration 10.0 uM
[15] = system: Receptor-type tyrosine-protein kinase FLT3 (Homo sapiens), P36888 [D835H]; settings: Compound concentration 1000.0 nM
[16] = target: Proto-oncogene tyrosine-protein kinase ROS (Homo sapiens) (UniProt P08922); settings: Compound concentration 1000.0 nM
[17] = system: Fibroblast growth factor receptor 3 (Homo sapiens), P22607 [G697C]; settings: Compound concentration 1000.0 nM
[18] = target: Dual specificity protein kinase CLK4 (Homo sapiens) (UniProt Q9HAZ1); settings: Compound concentration 1000.0 nM
Dual specificity protein kinase CLK4 (Homo sapiens), sequence (Q9HAZ1 whole entry, looked up, canonical isoform): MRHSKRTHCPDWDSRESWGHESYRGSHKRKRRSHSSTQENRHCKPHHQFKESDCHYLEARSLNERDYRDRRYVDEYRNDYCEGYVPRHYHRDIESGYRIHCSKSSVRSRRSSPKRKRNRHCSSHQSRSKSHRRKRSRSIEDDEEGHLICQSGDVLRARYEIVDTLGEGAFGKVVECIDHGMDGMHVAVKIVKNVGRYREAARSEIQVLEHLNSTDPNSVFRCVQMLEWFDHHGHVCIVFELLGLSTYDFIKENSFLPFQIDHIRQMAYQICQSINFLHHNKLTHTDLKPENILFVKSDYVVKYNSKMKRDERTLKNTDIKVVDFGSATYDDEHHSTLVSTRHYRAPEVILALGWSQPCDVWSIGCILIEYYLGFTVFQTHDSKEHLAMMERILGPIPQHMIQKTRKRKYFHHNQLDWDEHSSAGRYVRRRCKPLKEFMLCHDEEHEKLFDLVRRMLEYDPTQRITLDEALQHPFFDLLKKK

[19] = target: Casein kinase I isoform gamma-3 (Homo sapiens) (UniProt Q9Y6M4); settings: Compound concentration 1000.0 nM
Casein kinase I isoform gamma-3 (Homo sapiens), sequence (Q9Y6M4 whole entry, looked up, canonical isoform): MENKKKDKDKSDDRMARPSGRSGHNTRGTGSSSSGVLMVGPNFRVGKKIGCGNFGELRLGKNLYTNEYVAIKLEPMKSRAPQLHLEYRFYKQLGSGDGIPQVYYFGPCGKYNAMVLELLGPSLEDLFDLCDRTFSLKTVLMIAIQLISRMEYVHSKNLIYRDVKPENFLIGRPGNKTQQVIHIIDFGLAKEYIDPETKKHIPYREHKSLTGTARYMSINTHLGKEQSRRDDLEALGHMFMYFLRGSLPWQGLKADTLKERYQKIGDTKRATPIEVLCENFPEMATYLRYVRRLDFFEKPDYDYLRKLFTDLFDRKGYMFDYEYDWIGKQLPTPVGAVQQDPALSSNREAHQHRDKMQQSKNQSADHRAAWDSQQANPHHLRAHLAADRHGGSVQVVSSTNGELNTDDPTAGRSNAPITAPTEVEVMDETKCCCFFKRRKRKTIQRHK

[20] = target: Mitogen-activated protein kinase kinase kinase 1 (Homo sapiens) (UniProt Q13233); settings: Compound concentration 1000.0 nM
[21] = target: Cyclin-G-associated kinase (Homo sapiens) (UniProt O14976); settings: Compound concentration 1000.0 nM
Cyclin-G-associated kinase (Homo sapiens), sequence (O14976 whole entry): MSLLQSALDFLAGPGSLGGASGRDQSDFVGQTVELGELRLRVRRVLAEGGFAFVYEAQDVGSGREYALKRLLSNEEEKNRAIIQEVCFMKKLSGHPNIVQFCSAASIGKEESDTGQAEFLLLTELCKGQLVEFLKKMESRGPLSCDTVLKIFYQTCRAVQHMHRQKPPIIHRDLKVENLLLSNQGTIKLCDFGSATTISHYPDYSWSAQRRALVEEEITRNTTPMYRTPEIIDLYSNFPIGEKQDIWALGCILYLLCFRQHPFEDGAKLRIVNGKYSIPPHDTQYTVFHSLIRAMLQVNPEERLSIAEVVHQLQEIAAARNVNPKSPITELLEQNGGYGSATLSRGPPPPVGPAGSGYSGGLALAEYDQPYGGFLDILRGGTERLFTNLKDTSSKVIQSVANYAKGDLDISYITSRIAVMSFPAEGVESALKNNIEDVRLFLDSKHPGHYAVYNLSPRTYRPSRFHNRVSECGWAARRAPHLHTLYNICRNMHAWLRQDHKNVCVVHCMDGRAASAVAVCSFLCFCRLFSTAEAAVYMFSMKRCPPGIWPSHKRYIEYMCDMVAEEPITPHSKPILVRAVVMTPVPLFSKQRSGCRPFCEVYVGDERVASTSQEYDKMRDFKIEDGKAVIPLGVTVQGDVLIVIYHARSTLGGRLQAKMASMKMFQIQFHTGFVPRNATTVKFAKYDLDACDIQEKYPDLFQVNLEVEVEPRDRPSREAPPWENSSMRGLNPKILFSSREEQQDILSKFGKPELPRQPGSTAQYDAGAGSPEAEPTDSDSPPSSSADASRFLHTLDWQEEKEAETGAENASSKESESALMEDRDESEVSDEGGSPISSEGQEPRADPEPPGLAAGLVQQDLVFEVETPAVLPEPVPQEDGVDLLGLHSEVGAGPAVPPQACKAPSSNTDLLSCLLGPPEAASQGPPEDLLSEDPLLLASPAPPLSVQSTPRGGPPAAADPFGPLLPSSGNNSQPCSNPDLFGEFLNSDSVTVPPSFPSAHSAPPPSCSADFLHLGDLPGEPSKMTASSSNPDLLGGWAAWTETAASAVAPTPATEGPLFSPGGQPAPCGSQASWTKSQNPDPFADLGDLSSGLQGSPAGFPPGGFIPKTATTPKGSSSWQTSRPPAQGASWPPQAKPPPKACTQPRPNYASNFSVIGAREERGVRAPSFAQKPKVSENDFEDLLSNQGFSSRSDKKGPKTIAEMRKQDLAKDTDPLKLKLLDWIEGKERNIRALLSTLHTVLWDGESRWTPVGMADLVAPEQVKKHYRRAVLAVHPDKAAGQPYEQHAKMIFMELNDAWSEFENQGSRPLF

[22] = system: Mast/stem cell growth factor receptor Kit (Homo sapiens), P10721 [V559D,V654A]; settings: Compound concentration 1000.0 nM
[23] = target: Mitogen-activated protein kinase kinase kinase 3 (Homo sapiens) (UniProt Q99759); settings: Compound concentration 1000.0 nM
[24] = target: Activin receptor type-1 (Homo sapiens) (UniProt Q04771); settings: Compound concentration 1000.0 nM
[25] = target: Phosphatidylinositol 3-kinase catalytic subunit type 3 (Homo sapiens) (UniProt Q8NEB9); settings: Compound concentration 1000.0 nM
[26] = target: Serine/threonine-protein kinase 38-like (Homo sapiens) (UniProt Q9Y2H1); settings: Compound concentration 1000.0 nM
[27] = target: Tyrosine-protein kinase Fyn (Homo sapiens) (UniProt P06241); settings: Compound concentration 1000.0 nM
[28] = target: Ephrin type-A receptor 6 (Homo sapiens) (UniProt Q9UF33); settings: Compound concentration 1000.0 nM
[29] = target: Ribosomal protein S6 kinase alpha-6 (Homo sapiens) (UniProt Q9UK32); settings: Compound concentration 1000.0 nM
Ribosomal protein S6 kinase alpha-6 (Homo sapiens), sequence (Q9UK32 whole entry): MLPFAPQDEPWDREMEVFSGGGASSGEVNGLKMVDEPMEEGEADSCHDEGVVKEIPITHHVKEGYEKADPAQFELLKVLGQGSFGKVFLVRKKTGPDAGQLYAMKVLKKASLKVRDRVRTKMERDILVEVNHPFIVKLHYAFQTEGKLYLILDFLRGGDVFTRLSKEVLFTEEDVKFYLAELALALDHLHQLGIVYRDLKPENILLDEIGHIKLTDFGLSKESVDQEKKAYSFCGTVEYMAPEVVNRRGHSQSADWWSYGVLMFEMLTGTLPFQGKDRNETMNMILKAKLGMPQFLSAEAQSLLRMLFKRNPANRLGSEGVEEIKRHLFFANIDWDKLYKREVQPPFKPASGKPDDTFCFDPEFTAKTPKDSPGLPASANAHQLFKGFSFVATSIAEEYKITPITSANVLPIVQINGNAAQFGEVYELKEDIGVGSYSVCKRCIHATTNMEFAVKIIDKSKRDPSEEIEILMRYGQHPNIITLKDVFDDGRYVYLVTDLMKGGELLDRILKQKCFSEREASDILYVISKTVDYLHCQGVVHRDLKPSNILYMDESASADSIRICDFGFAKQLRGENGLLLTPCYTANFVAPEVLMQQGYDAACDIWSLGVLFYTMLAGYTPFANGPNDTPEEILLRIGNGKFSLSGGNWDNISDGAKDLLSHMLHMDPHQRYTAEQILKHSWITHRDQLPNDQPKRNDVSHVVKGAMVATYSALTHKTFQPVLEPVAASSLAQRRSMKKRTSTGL

[30] = target: Insulin-like growth factor 1 receptor (Homo sapiens) (UniProt P08069); settings: Compound concentration 1000.0 nM
[31] = system: Tyrosine-protein kinase ABL1 (Homo sapiens), P00519 [Q252H]; settings: Compound concentration 1000.0 nM
[32] = target: Protein-tyrosine kinase 6 (Homo sapiens) (UniProt Q13882); settings: Compound concentration 1000.0 nM
Protein-tyrosine kinase 6 (Homo sapiens), sequence (Q13882 whole entry, looked up): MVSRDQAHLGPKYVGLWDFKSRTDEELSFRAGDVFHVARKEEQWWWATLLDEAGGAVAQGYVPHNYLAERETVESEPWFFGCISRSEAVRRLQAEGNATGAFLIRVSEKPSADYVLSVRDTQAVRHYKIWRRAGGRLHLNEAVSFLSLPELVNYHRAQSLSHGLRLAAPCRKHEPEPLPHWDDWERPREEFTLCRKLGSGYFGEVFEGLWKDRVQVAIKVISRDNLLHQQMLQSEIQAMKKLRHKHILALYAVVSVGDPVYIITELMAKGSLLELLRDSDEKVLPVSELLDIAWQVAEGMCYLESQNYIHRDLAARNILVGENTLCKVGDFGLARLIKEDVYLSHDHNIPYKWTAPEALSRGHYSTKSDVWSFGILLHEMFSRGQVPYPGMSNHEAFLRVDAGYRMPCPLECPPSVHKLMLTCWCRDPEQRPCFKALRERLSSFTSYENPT

[33] = system: Receptor-type tyrosine-protein kinase FLT3 (Homo sapiens), P36888 [D835V]; settings: Compound concentration 1000.0 nM
[34] = target: Hormonally up-regulated neu tumor-associated kinase (Homo sapiens) (UniProt P57058); settings: Compound concentration 1000.0 nM
[35] = target: Ephrin type-A receptor 5 (Homo sapiens) (UniProt P54756); settings: Compound concentration 1000.0 nM
[36] = target: Tyrosine-protein kinase receptor TYRO3 (Homo sapiens) (UniProt Q06418); settings: Compound concentration 1000.0 nM
[37] = target: Tyrosine-protein kinase JAK2 (Homo sapiens) (UniProt O60674); settings: Compound concentration 1000.0 nM
[38] = target: Ribosomal protein S6 kinase beta-1 (Homo sapiens) (UniProt P23443); settings: Compound concentration 1000.0 nM
[39] = system: Tyrosine-protein kinase ABL1 (Homo sapiens), P00519 [T315I]; settings: Compound concentration 1000.0 nM
[40] = target: Mitogen-activated protein kinase 3 (Homo sapiens) (UniProt P27361); settings: Compound concentration 1000.0 nM
[41] = target: Cyclin-dependent kinase 11B (Homo sapiens) (UniProt P21127); settings: Compound concentration 1000.0 nM
[42] = target: Serine/threonine-protein kinase Nek10 (Homo sapiens) (UniProt Q6ZWH5); settings: Compound concentration 1000.0 nM
[43] = target: Non-receptor tyrosine-protein kinase TYK2 (Homo sapiens) (UniProt P29597); settings: Compound concentration 1000.0 nM
[44] = target: Alpha-2B adrenergic receptor (Homo sapiens) (UniProt P18089); settings: Compound concentration 10.0 uM
[45] = target: Protein kinase C theta type (Homo sapiens) (UniProt Q04759); settings: Compound concentration 1000.0 nM

CO[C@@H](C)c1c(Nc2ccc([C@H](N(C)C(=O)C3CCS(=O)(=O)CC3)C(F)(F)F)cc2)cnc2cc(Cl)nn12 [NVS-MALT1]
inactive: residual activity [1] 83% | residual activity [2] 90% | residual activity [3] 95% | residual activity [4] 94% | residual activity [5] 100% | residual activity [6] 100% | residual activity [7] 79% | residual activity [8] 77% | residual activity [9] 85% | residual activity [10] 79% | residual activity [11] 82% | residual activity [12] 99% | residual activity [13] 100% | inhibition [14] -8.44% | residual activity [15] 75% | residual activity [16] 77% | residual activity [17] 86% | residual activity [18] 94% | residual activity [19] 72% | residual activity [20] 100% | residual activity [21] 98% | residual activity [22] 92% | residual activity [23] 73% | residual activity [24] 94% | residual activity [25] 100% | residual activity [26] 75% | residual activity [27] 100% | residual activity [28] 100% | residual activity [29] 100% | residual activity [30] 100% | residual activity [31] 100% | residual activity [32] 81% | residual activity [33] 59% | residual activity [34] 100% | residual activity [35] 100% | residual activity [36] 100% | residual activity [37] 100% | residual activity [38] 100% | residual activity [39] 100% | residual activity [40] 100% | residual activity [41] 88% | residual activity [42] 100% | residual activity [43] 100% | inhibition [44] 0.32% | residual activity [45] 93%

CO[C@@H](C)c1c(Nc2ccc([C@@H](N(C)C(=O)C3CCS(=O)(=O)CC3)C(F)(F)F)cc2)cnc2cc(Cl)nn12 [NVS-MALT1-C]
inactive: residual activity [1] 89% | residual activity [2] 100% | residual activity [3] 85% | residual activity [4] 87% | residual activity [5] 100% | residual activity [6] 100% | residual activity [7] 90% | residual activity [8] 84% | residual activity [9] 76% | residual activity [10] 85% | residual activity [11] 100% | residual activity [12] 100% | residual activity [13] 98% | inhibition [14] -2.58% | residual activity [15] 63% | residual activity [16] 82% | residual activity [17] 84% | residual activity [18] 92% | residual activity [19] 71% | residual activity [20] 96% | residual activity [21] 93% | residual activity [22] 88% | residual activity [23] 100% | residual activity [24] 85% | residual activity [25] 100% | residual activity [26] 75% | residual activity [27] 95% | residual activity [28] 100% | residual activity [29] 100% | residual activity [30] 97% | residual activity [31] 100% | residual activity [32] 100% | residual activity [33] 52% | residual activity [34] 100% | residual activity [35] 100% | residual activity [36] 99% | residual activity [37] 98% | residual activity [38] 90% | residual activity [39] 100% | residual activity [40] 86% | residual activity [41] 100% | residual activity [42] 100% | residual activity [43] 98% | inhibition [44] 1.55% | residual activity [45] 98%
